From patent US9029376B2, “Small molecule inhibitors for the treatment or prevention of dengue virus infection” (Siga Technologies, Inc., priority 2008, dated 2015)

Each compound was assayed on Dengue-2 (Strain New Guinea C) (assay: Dengue-2 viral yield assay in Vero cells). Conditions: Dengue virus, Vero, 48 h, read-out: Activity (anti-dengue 2 viral activity, EC50).
Format: cell-based
Protocol: Compounds that were active in the primary screen were tested for activity in viral yield assays. […] Vero cells in 12-well plates were infected with dengue-2 virus at a multiplicity of infection (MOI) of 0.1, treated with compound (or DMSO as a control), incubated at 37° C., harvested 48 hours post infection and titered on Vero cells as described above. The EC50 was calculated through ExcelFit. Those compounds with activity below 1 μM are indicated with “A”, those with activity between 1 and 10 μM are indicated with “B”, and those with activity between 10 and 25 μM with “C”.
CC1CCN(C(=O)CSc2nc3ccccc3[nH]2)CC1 [Compound 44, 2-(1H-Benzoimidazol-2-ylsulfanyl)-1-(4-methyl-piperidin-1-yl)-ethanone] showed an EC50 greater than 25 µM. Work on O=C(CSc1nc2ccccc2[nH]1)N1CCN(c2ccccc2)CC1 [Compound 46, 2-(1H-Benzoimidazol-2-ylsulfanyl)-1-(4-phenyl-piperazin-1-yl)-ethanone] yielded an EC50 greater than 25 µM. O=C(O)c1ccc2oc(SCC(=O)N3CCCCC3)nc2c1 [Compound 48, 2-(2-oxo-2-piperidin-1-yl-ethylsulfanyl)-benzooxazole-5-carboxylic acid] gave an EC50 greater than 25 µM. O=C(CSc1nnc(CSc2nc3ccccc3s2)o1)NC1CCCCC1 [Compound 53, 2-[5-(Benzothiazol-2-ylsulfanylmethyl)-[1,3,4]oxadiazol-2-ylsulfanyl]-N-cyclohexyl-acetamide] showed an EC50 greater than 25 µM. CCC(=O)Nc1ccc2nc(SCC(=O)N3CCN(c4ccccc4)CC3)sc2c1 [Compound 54, N-{2-[2-oxo-2-(4-phenyl-piperazin-1-yl)-ethylsulfanyl]-benzothiazol-6-yl}-propionamide] showed an EC50 greater than 25 µM. Nc1ccc2nc(SCC(=O)N3CCCC3)sc2c1 [Compound 59, 2-(6-Amino-benzothiazol-2-ylsulfanyl)-1-pyrrolidin-1-yl-ethanone] was tested, and the EC50 was greater than 25 µM. O=C1CC(N2CCN(c3nc4ccccc4s3)CC2)C(=O)N1c1ccc(F)cc1 (stereo not shown) [Compound 60, 3-(4-Benzothiazol-2-yl-piperazin-1-yl)-1-(4-fluoro-phenyl)-pyrrolidine-2,5-dione] showed an EC50 greater than 25 µM. In the case of NC(=O)C1CCN(C(=O)CSc2nc3ccccc3s2)CC1 [Compound 66, 1-[2-(Benzothiazol-2-ylsulfanyl)-acetyl]-piperidine-4-carboxylic acid amide], the EC50 is reported as greater than 25 µM. With NC(=O)C1CCN(C(=O)CSc2nc3ccccc3[nH]2)CC1 [Compound 68, 1-[2-(1H-Benzoimidazol-2-ylsulfanyl)-acetyl]-piperidine-4-carboxylic acid amide] the EC50 was greater than 25 µM. In the case of CCn1c(SCC(=O)N2CCC(C(N)=O)(N3CCCCC3)CC2)nnc1-c1ccccc1 [Compound 69, 1′-[2-(4-Ethyl-5-phenyl-4H-[1,2,4]triazol-3-ylsulfanyl)-acetyl]-[1,4′]bipiperidinyl-4′-carboxylic acid amide], the EC50 is reported as greater than 25 µM. Compound NC(=O)C1(N2CCCCC2)CCN(C(=O)CSc2nc3ccccc3[nH]2)CC1 [Compound 70, 1′-[2-(1H-Benzoimidazol-2-ylsulfanyl)-acetyl]-[1,4′]bipiperidinyl-4′-carboxylic acid amide] has an EC50 greater than 25 µM. For O=C(CSc1nc2cc(Cl)ccc2o1)N1CCOCC1 [Compound 74, 2-(5-Chloro-benzooxazol-2-ylsulfanyl)-1-morpholin-4-yl-ethanone], the EC50 was greater than 25 µM. With CCCC(=O)Nc1ccc2nc(SCC(=O)N3CCN(c4ccccc4)CC3)sc2c1 [Compound 75, N-{2-[2-oxo-2-(4-phenyl-piperazin-1-yl)-ethylsulfanyl]-benzothiazol-6-yl}-butyramide] the EC50 was greater than 25 µM. O=C(CSc1nc2ccccc2o1)N1CCN(c2ccccc2)CC1 [Compound 76, 2-(Benzooxazol-2-ylsulfanyl)-1-(4-phenyl-piperazin-1-yl)-ethanone] showed an EC50 greater than 25 µM. With O=C(CSc1nc2ccccc2o1)N1CCN(c2ccc(Cl)cc2)CC1 [Compound 80, 2-(Benzooxazol-2-ylsulfanyl)-1-[4-(4-chloro-phenyl)-piperazin-1-yl]-ethanone] the EC50 was greater than 25 µM.

Same assay, conditions: Dengue virus; Dengue-2 strain New Guinea C, Vero cells, MOI 0.1, harvested 48 hours post infection, viral yield; read-out: Activity (anti-dengue 2 viral activity, EC50)
In the case of O=C(CSc1nc2ccccc2[nH]1)N1CCOCC1 [Compound 42, 2-(1H-Benzoimidazol-2-ylsulfanyl)-1-morpholin-4-yl-ethanone], the EC50 is reported as greater than 25 µM. For O=C(CSc1nc2ccccc2[nH]1)N1CCCCCC1 [Compound 43, 1-Azepan-1-yl-2-(1H-benzoimidazol-2-ylsulfanyl)-ethanone], the EC50 was greater than 25 µM. Work on O=C(CSc1nc2ccccc2[nH]1)N1CCCC1 [Compound 45, 2-(1H-Benzoimidazol-2-ylsulfanyl)-1-pyrrolidin-1-yl-ethanone] yielded an EC50 greater than 25 µM. Work on O=C(CSc1nc2ccccc2o1)N1CCc2ccccc2C1 [Compound 47, 2-(Benzooxazol-2-ylsulfanyl)-1-(3,4-dihydro-1H-isoquinolin-2-yl)-ethanone] yielded an EC50 greater than 25 µM. O=C(CSc1nc2ccc([N+](=O)[O-])cc2s1)N1CCCCC1 [Compound 49, 2-(6-Nitro-benzothiazol-2-ylsulfanyl)-1-piperidin-1-yl-ethanone] was tested, and the EC50 was greater than 25 µM. O=C(CSc1nc2ccccc2s1)N1CCN(c2nc3ccccc3s2)CC1 [Compound 50, 1-(4-Benzothiazol-2-yl-piperazin-1-yl)-2-(benzothiazol-2-ylsulfanyl)-ethanone] showed an EC50 greater than 25 µM. With O=C(CSc1nc2ccccc2n1-c1ccccc1)N1CCN(c2ccccc2)CC1 [Compound 51, 2-(1-Phenyl-1H-benzoimidazol-2-ylsulfanyl)-1-(4-phenyl-piperazin-1-yl)-ethanone] the EC50 was greater than 25 µM. O=C(CSc1nc2ccc([N+](=O)[O-])cc2s1)N1CCN(c2ccccc2)CC1 [Compound 52, 2-(6-Nitro-benzothiazol-2-ylsulfanyl)-1-(4-phenyl-piperazin-1-yl)-ethanone] showed an EC50 greater than 25 µM. For O=C(CSc1nc2ccc([N+](=O)[O-])cc2s1)N1CCCC1 [Compound 55, 2-(6-Nitro-benzothiazol-2-ylsulfanyl)-1-pyrrolidin-1-yl-ethanone], the EC50 was greater than 25 µM. Work on Cc1ccc(C(=O)Nc2ccc3nc(SCC(=O)N4CCCCC4)sc3c2)cc1 [Compound 56, 4-Methyl-N-[2-(2-oxo-2-piperidin-1-yl-ethylsulfanyl)-benzothiazol-6-yl]-benzamide] yielded an EC50 greater than 25 µM. CC(=O)Nc1ccc2nc(SCC(=O)N3CCN(c4ccccc4)CC3)sc2c1 [Compound 57, N-{2-[2-Oxo-2-(4-phenyl-piperazin-1-yl)-ethylsulfanyl]-benzothiazol-6-yl}-acetamide] showed an EC50 greater than 25 µM. O=C(Nc1ccc2nc(SCC(=O)N3CCCC3)sc2c1)c1ccc(Cl)cc1 [Compound 58, 4-Chloro-N-[2-(2-oxo-2-pyrrolidin-1-yl-ethylsulfanyl)-benzothiazol-6-yl]-benzamide] was tested, and the EC50 was greater than 25 µM. Work on O=C(CSc1nc2ccccc2[nH]1)N1CCc2ccccc2C1 [Compound 61, 2-(1H-Benzoimidazol-2-ylsulfanyl)-1-(3,4-dihydro-1H-isoquinolin-2-yl)-ethanone] yielded an EC50 greater than 25 µM. Compound CCN(CC)C(=O)CSc1nc2cc(C)ccc2[nH]1 [Compound 62, N,N-Diethyl-2-(5-methyl-1H-benzoimidazol-2-ylsulfanyl)-acetamide] has an EC50 greater than 25 µM. O=C(CSc1nc2ccccc2s1)N1CCCC1 [Compound 63, 2-(Benzothiazol-2-ylsulfanyl)-1-pyrrolidin-1-yl-ethanone] was tested, and the EC50 was greater than 25 µM. With COc1ccc(C(=O)Nc2ccc3nc(SCC(=O)N4CCOCC4)sc3c2)cc1OC [Compound 64, 3,4-Dimethoxy-N-[2-(2-morpholin-4-yl-2-oxo-ethylsulfanyl)-benzothiazol-6-yl]-benzamide] the EC50 was greater than 25 µM. In the case of O=C(Nc1ccc2nc(SCC(=O)N3CCCC3)sc2c1)c1ccccc1Br [Compound 65, 2-Bromo-N-[2-(2-oxo-2-pyrrolidin-1-yl-ethylsulfanyl)-benzothiazol-6-yl]-benzamide], the EC50 is reported as greater than 25 µM. Compound NC(=O)C1CCN(C(=O)CSc2nc3ccccc3o2)CC1 [Compound 67, 1-[2-(Benzooxazol-2-ylsulfanyl)-acetyl]-piperidine-4-carboxylic acid amide] has an EC50 greater than 25 µM. Compound O=C(CSc1nc2ccccc2s1)N1CCN(c2ccc(F)cc2)CC1 [Compound 71, 2-(Benzothiazol-2-ylsulfanyl)-1-[4-(4-fluoro-phenyl)-piperazin-1-yl]-ethanone] has an EC50 greater than 25 µM. For O=C(CSc1nc2ccccc2s1)N1CCN(C(c2ccccc2)c2ccccc2)CC1 [Compound 72, 1-(4-Benzhydryl-piperazin-1-yl)-2-(benzothiazol-2-ylsulfanyl)-ethanone], the EC50 was greater than 25 µM. For O=C(CSc1nc2ccc([N+](=O)[O-])cc2s1)N1CCN(c2cccc(Cl)c2)CC1 [Compound 73, 1-[4-(3-Chloro-phenyl)-piperazin-1-yl]-2-(6-nitro-benzothiazol-2-ylsulfanyl)-ethanone], the EC50 was greater than 25 µM. Work on Nc1ccc2nc(SCC(=O)N3CCN(c4ccc(Cl)cc4)CC3)sc2c1 [Compound 77, 2-(6-Amino-benzothiazol-2-ylsulfanyl)-1-[4-(4-chloro-phenyl)-piperazin-1-yl]-ethanone] yielded an EC50 greater than 25 µM. For Cc1ccc(-c2nnc(N3CCN(C(=O)CSc4nc5ccccc5o4)CC3)c3ccccc23)cc1 [Compound 78, 2-(Benzooxazol-2-ylsulfanyl)-1-[4-(4-p-tolyl-phthalazin-1-yl)-piperazin-1-yl]-ethanone], the EC50 was greater than 25 µM. With Cc1cccc(C)c1NC(=O)Cn1c(SCC(N)=O)nc2ccccc21 [Compound 79, 2-{1-[(2,6-Dimethyl-phenylcarbamoyl)-methyl]-1H-benzoimidazol-2-ylsulfanyl}-acetamide] the EC50 was greater than 25 µM. With Cn1c(SCC(=O)N2CCc3ccccc3C2)nc2ccccc21 [Compound 81, 1-(3,4-Dihydro-1H-isoquinolin-2-yl)-2-(1-methyl-1H-benzoimidazol-2-ylsulfanyl)-ethanone] the EC50 was greater than 25 µM.
